Reference: US20250034108A1, “SODIUM CHANNEL BLOCKERS” (NOVARTIS AG, priority 2023, published 2025)
pIC50: −log10 of the molar value.

Tests used:
human Nav1.5 [1] = biological target: T1, human Nav1.5 (Homo sapiens (Human), UniProt Q14524); experiment: Qpatch automated patch-clamp, peak Nav1.5 current inhibition, 5-Hz AF-like assay (holding potential -85 mV); format: cell-based
From the text: (§1) Electrophysiology was used to measure the ionic currents in isolated living cells using automated patch-clamp recording, performed using an automated patch-clamp machine called Qpatch (Sophion Bioscience). Two different assay conditions were used to identify compounds with atrial-selective potential. The 5-Hz AF-like assay has more depolarized holding potential at −85 mV to mimic atrial resting membrane potential (RMP) and was used to identify compounds of strong rate-dependence. Active, rate-dependent compounds were then screened at 1 Hz (i.e., sinus rate) at the holding potential of −100 mV to mimic the ventricular scenario and help identify compounds with the largest potency separation or attenuation from the 5-Hz AF-like assay. Such compounds have the potential for treating AF without the QRS liability inherent to Class Ic drugs.
(§2) The sodium current conducted through a cell (via Nav1.5) or electrical signals were processed through a low-pass filter at 5 KHz, re-digitalized and acquired at 20 kHz. Series resistance was not compensated and leak subtraction was performed.
(§3) 1 to 3 million Chinese Hamster Ovary cells (also known as CHO-K1) stably expressing human Nav1.5 were seeded into […] culture flasks with 25 mL medium (consisting of Gibco Dulbecco's Modified Eagle Medium as a base medium with 1% MEM non-essential amino acids, 400 μg/mL Geneticin, 5 μg/mL puromycin and 10% fetal bovine serum) 48-72 hours prior to the experiments. On the day of the experiment, cells were washed once with phosphate-buffered saline (also known as PBS; Gibco) detached with Detachin™ (Genlantis), and re-suspended in CHO—S-SFM II media (Gibco) at 200,000 cells/mL. The CHO—S-SFM II was replaced with assay solutions prior to the assays. Whole-cell currents were recorded at room temperature in the whole-cell configuration. The external aqueous assay solution (pH=7.4; Osm=307-315) contained the following (the concentration for each component is expressed in parentheses in mM): NaCl (140 mM), KCl (4 mM), CaCl2) (2 mM), MgCl2 (1 mM), 4-(2-hydroxyethyl)-1-piperazineethanesulfonic acid, also known as HEPES (10 mM), and glucose (5 mM). The internal aqueous assay solution (pH=7.2; Osm=292-295) contained the following (the concentration for each component is expressed in parentheses in mM): CsF (110 mM), CsCl (10 mM), NaCl (10 mM), HEPES (10 mM), and ethylene glycolbis(β-aminoethyl ether)-N,N,N′,N′-tetraacetic acid, also known as EGTA (10 mM).
To assess peak Nav1.5 current inhibition in an atrial fibrillation-mimicking condition (Nav1.5 IC50 (5 Hz, AF-like rate) (μM)), compounds were first prepared at 10 mM in DMSO, and cells were pre-incubated with test compounds at each concentration for 3 min. in an ascending order of 0, 0.37, 1.1, 3.3, 10 and 30 μM. An atrial action potential-like protocol consisting of a voltage ramp (+10 mV to −85 mV for a 150 ms duration and a holding potential at −85 mV) was then applied to cells at 5 Hz for 12 s until no further current change or inhibition was observed. The percent inhibition (expressed as ([Iafter compound treatment/Ibefore compound treatment]×100%) is calculated by normalizing the peak current amplitude at the last pulse of each of the 6 compound concentrations by the amplitude before exposure to the test compound. The compiled data was further normalized by vehicle control (DMSO) to account for Nav1.5 current run-down, and IC50 was calculated by Matlab (MathWorks, USA).

human Nav1.5 [2] = biological target: T1, human Nav1.5; experiment: Qpatch automated patch-clamp, peak Nav1.5 current inhibition, 1 Hz with 50 nM ATX-II (holding potential -100 mV); format: cell-based; conditions: CHO-K1 cells stably expressing human Nav1.5, read-out: Nav1.5 IC50 (1 Hz, ATXII)
From the text: as §1, §2, §3
To assess peak Nav1.5 current inhibition mimicking a ventricular condition at sinus rate with or without ATX-II (Nav1.5 IC50 (1 Hz, ATXII) (μM) or (1 Hz, Sinus Rate) (μM)), compounds were first prepared at 10 mM in DMSO, and cells were pre-incubated with test compounds at each concentration for 3 min. in an ascending order of 0, 0.37, 1.1, 3.3, 10 and 30 uM. In the assay with ATX-II (Alomone Labs), 50 nM ATX-II was included during the 3-min. compound incubation. A square pulse (−10 mV; 400 ms and a holding potential at −100 mV) was run at 1 Hz for 25 s until no further inhibition or Nav1.5 current change was observed. The percent inhibition (expressed as ([Iafter compound treatment/Ibefore compound treatment]×100%) is calculated by normalizing the peak current amplitude at the last pulse of each of the 6 compound concentrations by the amplitude before exposure to the test compound. The compiled data was further normalized by vehicle control (DMSO) to account for Nav1.5 current run-down, and IC50 was calculated by Matlab (MathWorks, USA).

[3] = CHO-K1 cells stably expressing human Nav1.5, holding potential -85 mV, Table 5, read-out: Nav1.5 IC50 (5 Hz, AF Rate)
[4] = CHO-K1 cells stably expressing human Nav1.5, Table 6, Examples 63-90, read-out: Nav1.5 IC50 (5 Hz, AF Rate)

T1 sequence (Q14524 whole entry): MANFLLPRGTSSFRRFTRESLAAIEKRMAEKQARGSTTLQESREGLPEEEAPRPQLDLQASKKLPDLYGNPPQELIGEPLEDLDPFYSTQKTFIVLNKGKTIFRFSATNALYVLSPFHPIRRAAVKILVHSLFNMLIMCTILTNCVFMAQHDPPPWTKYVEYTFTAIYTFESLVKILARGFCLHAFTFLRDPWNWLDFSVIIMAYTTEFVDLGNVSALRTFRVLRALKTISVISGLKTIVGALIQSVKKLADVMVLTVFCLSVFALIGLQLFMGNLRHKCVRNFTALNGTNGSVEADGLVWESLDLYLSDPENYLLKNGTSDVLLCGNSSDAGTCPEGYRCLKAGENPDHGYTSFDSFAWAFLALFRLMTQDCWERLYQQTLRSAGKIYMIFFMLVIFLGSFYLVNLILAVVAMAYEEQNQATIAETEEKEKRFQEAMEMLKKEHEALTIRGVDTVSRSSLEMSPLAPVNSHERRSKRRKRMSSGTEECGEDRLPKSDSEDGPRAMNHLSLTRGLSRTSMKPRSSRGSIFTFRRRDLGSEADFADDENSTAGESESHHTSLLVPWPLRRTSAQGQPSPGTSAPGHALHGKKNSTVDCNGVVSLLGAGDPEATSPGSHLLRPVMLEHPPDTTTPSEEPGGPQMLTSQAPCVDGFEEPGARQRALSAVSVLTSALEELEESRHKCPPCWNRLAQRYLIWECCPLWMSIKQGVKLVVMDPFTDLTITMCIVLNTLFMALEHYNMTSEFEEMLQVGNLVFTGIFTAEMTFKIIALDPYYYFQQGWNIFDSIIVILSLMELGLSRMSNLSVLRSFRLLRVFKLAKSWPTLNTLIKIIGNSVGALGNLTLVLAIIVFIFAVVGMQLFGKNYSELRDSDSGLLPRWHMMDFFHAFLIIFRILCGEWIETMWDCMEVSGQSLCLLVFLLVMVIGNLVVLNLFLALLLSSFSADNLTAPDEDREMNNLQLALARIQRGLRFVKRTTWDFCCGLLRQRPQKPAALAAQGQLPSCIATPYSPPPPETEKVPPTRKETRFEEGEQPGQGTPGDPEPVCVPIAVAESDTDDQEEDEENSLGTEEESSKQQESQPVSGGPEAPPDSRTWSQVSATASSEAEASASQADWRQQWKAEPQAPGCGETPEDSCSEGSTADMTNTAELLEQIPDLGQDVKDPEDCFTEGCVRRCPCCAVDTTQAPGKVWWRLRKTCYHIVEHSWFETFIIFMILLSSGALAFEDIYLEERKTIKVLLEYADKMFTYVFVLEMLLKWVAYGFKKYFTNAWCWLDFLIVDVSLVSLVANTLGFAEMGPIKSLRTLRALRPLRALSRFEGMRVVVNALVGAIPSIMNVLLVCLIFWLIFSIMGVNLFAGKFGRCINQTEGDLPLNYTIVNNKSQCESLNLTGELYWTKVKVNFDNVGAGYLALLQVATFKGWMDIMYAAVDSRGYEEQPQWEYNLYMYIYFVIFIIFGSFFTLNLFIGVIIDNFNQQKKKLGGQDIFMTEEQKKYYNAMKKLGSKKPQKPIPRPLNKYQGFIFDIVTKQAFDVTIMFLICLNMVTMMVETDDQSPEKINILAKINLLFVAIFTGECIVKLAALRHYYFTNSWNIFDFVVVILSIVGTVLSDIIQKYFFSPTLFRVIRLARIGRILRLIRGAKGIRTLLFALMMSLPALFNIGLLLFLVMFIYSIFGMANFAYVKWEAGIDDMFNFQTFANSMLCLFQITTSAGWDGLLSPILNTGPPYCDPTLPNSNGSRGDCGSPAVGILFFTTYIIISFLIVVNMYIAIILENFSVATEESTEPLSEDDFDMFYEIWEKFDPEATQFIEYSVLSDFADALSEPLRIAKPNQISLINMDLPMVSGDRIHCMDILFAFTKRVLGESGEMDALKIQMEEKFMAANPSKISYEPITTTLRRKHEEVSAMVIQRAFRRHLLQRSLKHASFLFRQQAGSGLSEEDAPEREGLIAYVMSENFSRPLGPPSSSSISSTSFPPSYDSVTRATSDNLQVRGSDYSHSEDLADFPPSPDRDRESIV

Compound	pIC50 (human Nav1.5 [1]; [3])	pIC50 (human Nav1.5 [2])	pIC50 (human Nav1.5 [1]; [4])
NS(=O)(=O)CC(O)c1cccc(-c2ccn(Cc3cc(OC(F)(F)F)ccc3F)n2)n1 (racemic) [Example 36, 2-(6-(1-(2-fluoro-5-(trifluoromethoxy)benzyl)-1H-pyrazol-3-yl)pyridin-2-yl)-2-hydroxyethane-1-sulfonamide]	5.43	< 4.52	
NS(=O)(=O)CC(O)(c1cccc(-c2ccn(Cc3cc(OC(F)(F)F)ccc3F)n2)n1)C(F)(F)F (racemic) [Example 39, 3,3,3-trifluoro-2-(6-(1-(2-fluoro-5-(trifluoromethoxy)benzyl)-1H-pyrazol-3-yl)pyridin-2-yl)-2-hydroxypropane-1-sulfonamide]	5.36	< 4.52	
CC(O)(CS(N)(=O)=O)c1ccc(Cl)c(-c2nnn(Cc3cc(OC(F)(F)F)ccc3F)n2)n1 (racemic) [Rac-27 + 28, 2-(5-chloro-6-(2-(2-fluoro-5-(trifluoromethoxy)benzyl)-2H-tetrazol-5-yl)pyridin-2-yl)-2-hydroxypropane-1-sulfonamide]	5.96	4.80	
CC(O)(CS(N)(=O)=O)c1cccc(-c2cnn(Cc3cc(OC(F)(F)F)ccc3F)n2)n1 (racemic) [Rac-61 + 62]	5.47	< 4.52	
CC(O)(CS(N)(=O)=O)c1cccc(-c2nnn(Cc3cc(C(F)(F)F)ccc3F)n2)n1 (single isomer, unassigned) [Example 19, (R or S)-2-(6-(2-(2-fluoro-5-(trifluoromethyl)benzyl)-2H-tetrazol-5-yl)pyridin-2-yl)-2-hydroxypropane-1-sulfonamide]	5.30	4.85	
CC(O)(CS(N)(=O)=O)c1cccc(-c2nnn(Cc3cc(C(F)(F)F)ccc3F)n2)n1 (single isomer, unassigned) [Example 20, (R or S)-2-(6-(2-(2-fluoro-5-(trifluoromethyl)benzyl)-2H-tetrazol-5-yl)pyridin-2-yl)-2-hydroxypropane-1-sulfonamide]	5.10	4.64	
CC(O)(CS(N)(=O)=O)c1cccc(-c2nnn(Cc3cc(Cl)ccc3F)n2)n1 (single isomer, unassigned) [Example 21, (R or S)-2-(6-(2-(5-chloro-2-fluorobenzyl)-2H-tetrazol-5-yl)pyridin-2-yl)-2-hydroxypropane-1-sulfonamide]	5.20	< 4.52	
CC(O)(CS(N)(=O)=O)c1cccc(-c2nnn(Cc3cc(Cl)ccc3F)n2)n1 (single isomer, unassigned) [Example 22, (R or S)-2-(6-(2-(5-chloro-2-fluorobenzyl)-2H-tetrazol-5-yl)pyridin-2-yl)-2-hydroxypropane-1-sulfonamide]	5.08	4.66	
CC(O)(CS(N)(=O)=O)c1ccc(Cl)c(-c2nnn(Cc3cc(OC(F)(F)F)ccc3F)n2)n1 (single isomer, unassigned) [Example 27, (R or S)-2-(5-chloro-6-(2-(2-fluoro-5-(trifluoromethoxy)benzyl)-2H-tetrazol-5-yl)pyridin-2-yl)-2-hydroxypropane-1-sulfonamide]	6.10	5.39	
CC(O)(CS(N)(=O)=O)c1ccc(Cl)c(-c2nnn(Cc3cc(OC(F)(F)F)ccc3F)n2)n1 (single isomer, unassigned) [Example 28, (R or S)-2-(5-chloro-6-(2-(2-fluoro-5-(trifluoromethoxy)benzyl)-2H-tetrazol-5-yl)pyridin-2-yl)-2-hydroxypropane-1-sulfonamide]	6.15	5.49	
CC(O)(CS(N)(=O)=O)c1cccc(-c2ccn(Cc3cc(OC(F)(F)F)ccc3F)n2)n1 (single isomer, unassigned) [Example 37, (R or S)-2-(6-(1-(2-fluoro-5-(trifluoromethoxy)benzyl)-1H-pyrazol-3-yl)pyridin-2-yl)-2-hydroxypropane-1-sulfonamide]	5.89	4.85	
CC(O)(CS(N)(=O)=O)c1cccc(-c2ccn(Cc3cc(OC(F)(F)F)ccc3F)n2)n1 (single isomer, unassigned) [Example 38, (R or S)-2-(6-(1-(2-fluoro-5-(trifluoromethoxy)benzyl)-1H-pyrazol-3-yl)pyridin-2-yl)-2-hydroxypropane-1-sulfonamide]	5.37	< 4.52	
CC(O)(CS(N)(=O)=O)c1cccc(-c2nc(Cc3cc(OC(F)(F)F)ccc3F)no2)n1 (single isomer, unassigned) [Example 57, (R or S)-2-(6-(3-(2-fluoro-5-(trifluoromethoxy)benzyl)-1,2,4-oxadiazol-5-yl)pyridin-2-yl)-2-hydroxypropane-1-sulfonamide]	5.44	4.57	
C[C@](O)(CS(N)(=O)=O)c1cccc(-c2nnn(Cc3cc(OC(F)(F)F)ccc3Cl)n2)n1 [Example 77]			4.89
C[C@](O)(CS(N)(=O)=O)c1cccc(-c2nnn(Cc3cc(Cl)ccc3Cl)n2)n1 [Example 78]			5.00
C[C@](O)(CS(N)(=O)=O)c1cccc(-c2nnn(Cc3c(F)cccc3C(F)(F)F)n2)n1 [Example 79]			4.89
C[C@](O)(CS(N)(=O)=O)c1cccc(-c2nnn(Cc3ccc(Cl)c(C(F)(F)F)c3)n2)n1 [Example 80]			4.85
C[C@](O)(CS(N)(=O)=O)c1cccc(-c2nnn(Cc3cc(Cl)c(F)cc3F)n2)n1 [Example 81]			4.68
C[C@](O)(CS(N)(=O)=O)c1cccc(-c2nnn(Cc3cccc(OC(F)(F)F)c3)n2)n1 [Example 82]			5.14
C[C@](O)(CS(N)(=O)=O)c1cccc(-c2nnn(Cc3cc(C(F)(F)F)cc(C(F)(F)F)c3)n2)n1 [Example 83]			4.74
C[C@](O)(CS(N)(=O)=O)c1cccc(-c2nnn(Cc3cc(OC(F)F)ccc3F)n2)n1 [Example 84]			4.85
C[C@](O)(CS(N)(=O)=O)c1cccc(-c2nnn(Cc3c(Cl)cccc3Cl)n2)n1 [Example 85]			5.28
C[C@](O)(CS(N)(=O)=O)c1cccc(-c2nnn(Cc3cc(OC(F)(F)F)ccc3Br)n2)n1 [Example 86]			5.20
C[C@](O)(CS(N)(=O)=O)c1cccc(-c2nnn(Cc3c(C(F)(F)F)ccc(Cl)c3Cl)n2)n1 [Example 87]			5.03
C[C@](O)(CS(N)(=O)=O)c1cccc(-c2nnn(Cc3cc(Cl)cc(OC(F)(F)F)c3)n2)n1 [Example 88]			4.55
C[C@](O)(CS(N)(=O)=O)c1cccc(-c2nnn(Cc3cc(Cl)ccc3C(F)(F)F)n2)n1 [Example 89]			4.57
C[C@](O)(CS(N)(=O)=O)c1cccc(-c2nnn(Cc3cc(Cl)cc(Cl)c3Cl)n2)n1 [Example 90]			5.05
